According to US20250257075A1, “MACROCYCLIC INHIBITORS OF KRAS FOR THE TREATMENT OF CANCER” (Hoffmann-La Roche Inc., priority 2022, published 2025):

Experiments:
Type in all cases: cell-based
Settings in all cases: Homo sapiens, MIA PaCa-2, 72 h, 3 d, CellTiter-Glo
[1] = system: Miapaca-2 mutant cells KRAS G12C + H95N; assay: Stable KRAS mutant cell line viability assay (CTG), G12C + H95N
Description: (§1) The aim of the study was to determine the potency and efficacy of compounds for cell proliferation using CellTiter-Glo® (CTG) Luminescent Cell Viability Assay (Promega Corp., Madison, WI). We cloned […] KRAS^G12C variant sequences with secondary mutations (V8A, V9Y, S17E, T58I, A59T, S65W, R68S, D69P, M72I, D92R, H95N, Y96D, Q99F, Q99W, Y96H, and F156L) into the Miapaca-2. Totally 14 stable Miapaca-2 mutant cell lines were established through lentivirus infection. For the cell viability assay, cells were dosed with compounds in a 9-point dose-response using a 4 fold dilution series at a top dose of 10 μM. KRAS mutant cells were maintained in DMEM+10% FBS+2.5% HI Horse serum+1% PS+1 μg/mL Puromycin and seeded into 96-well plates at 800-1,500 cells per well 24 h before compound addition and then incubated with compound for 3 d before assaying viability (CellTiter-Glo, Promega). Assays were performed in biological duplicates. Nonlinear regression curves were fitted using Xfit. IC50 (absolute IC50) is the dose at which the estimated viability is 50% relative to untreated wells.

[2] = system: Miapaca-2 mutant cells KRAS G12C + Y96D; assay: Stable KRAS mutant cell line viability assay (CTG), G12C + Y96D
Description: as §1

[3] = system: Miapaca-2 mutant cells KRAS G12C + V8A; assay: Stable KRAS mutant cell line viability assay (CTG), G12C + V8A
Description: as §1

[4] = system: Miapaca-2 mutant cells KRAS G12C + Q99W; assay: Stable KRAS mutant cell line viability assay (CTG), G12C + Q99W
Description: as §1

[5] = system: Miapaca-2 mutant cells KRAS G12C + T58I; assay: Stable KRAS mutant cell line viability assay (CTG), G12C + T58I
Description: as §1

[6] = system: Miapaca-2 mutant cells KRAS G12C + R68S; assay: Stable KRAS mutant cell line viability assay (CTG), G12C + R68S
Description: as §1

[7] = system: Miapaca-2 mutant cells KRAS G12C + V9Y; assay: Stable KRAS mutant cell line viability assay (CTG), G12C + V9Y
Description: as §1

[8] = system: Miapaca-2 mutant cells KRAS G12C + M72I; assay: Stable KRAS mutant cell line viability assay (CTG), G12C + M72I
Description: as §1

[9] = system: Miapaca-2 mutant cells KRAS G12C + A59T; assay: Stable KRAS mutant cell line viability assay (CTG), G12C + A59T
Description: as §1

[10] = system: Miapaca-2 mutant cells KRAS G12C + S17E; assay: Stable KRAS mutant cell line viability assay (CTG), G12C + S17E
Description: as §1

IC50 [1]: 0.003 µM | IC50 [2]: 0.006 µM | IC50 [3]: 0.001 µM | IC50 [4]: 0.003 µM | IC50 [5]: 0.003 µM | IC50 [6]: 0.022 µM | IC50 [7]: 0.003 µM | IC50 [8]: 0.001 µM | IC50 [9]: 0.032 µM | IC50 [10]: 0.003 µM
SMILES: CCn1c(-c2cc(N3CCOCC3)cnc2[C@H](C)OC)c2c3cc(c(F)cc31)-c1csc(n1)C[C@H](NC(=O)[C@H](C(C)C)N(C)C(=O)[C@H]1C[C@@H](C#CC(F)(F)F)C1)C(=O)N1CCC[C@H](N1)C(=O)OCC(C)(C)C2 (atropisomer, axis not shown; (M)) [Example 11, cis-N-[(1S)-1-[[(7S,13S)-21-ethyl-24-fluoro-(20M)-20-[2-[(1S)-1-methoxyethyl]-5-morpholino-3-pyridyl]-17,17-dimethyl-8,14-dioxo-15-oxa-4-thia-9,21,27,28-tetrazapentacyclo[17.5.2.1^2,5.1^9,13.0^22,26]octacosa-1(25),2,5(28),19,22(26),23-hexaen-7-yl]carbamoyl]-2-methyl-propyl]-N-methyl-3-(3,3,3-trifluoroprop-1-ynyl)cyclobutanecarboxamide]
